Source: the supplement of paper PMC10132981, “Formate overflow drives toxic folate trapping in MTHFD1 inhibited cancer cells” (Nature Metabolism, 2023)
Where “and” joins values, the source holds several entries; their conditions need not be identical. Equal entries are not always repeated.

Legend:
SW620 MTHFD2-/- = assay: cell viability relative to vehicle (resazurin, 96 h); higher = more viable; details: base medium: RPMI + dialysed FBS
Method: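 SW620 WT or MTHFD2-/- cells were treated for 96 h with a compound dilution series (log10 M) in RPMI with normal or dialysed FBS. Viability was read by resazurin and is given as % of vehicle.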

SW620 = assay: cell viability relative to lowest-dose well (resazurin, 96 h); higher = more viable; details: RPMI + 10% FBS
Summary of the method: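 Each value gives viability as percent of the lowest-dose well, drawn from independent replicate cultures. Cells (HCT116, 500 cells/well; SW620, 1,000 cells/well) in 50 µl RPMI with 10% FBS and a metabolite supplement were exposed in 384-well plates to compound dilution series for 96 h at 37 °C, 5% CO2. Readout was fluorescence at 595 nm from resorufin formed from resazurin (10 µg ml^−1) over 5 h.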

Cc1c(N2CCN(C)[C@@H](C)C2)ccc2c3c(c(=O)oc12)CN(C(=O)c1ccc(NS(C)(=O)=O)c(OC(F)(F)F)c1)CC3
SW620 MTHFD2-/-
Details	cell viability [%]
log10 compound concentration (M): -5, supplement / serum: 50μM Hypoxanthine	95.4
log10 compound concentration (M): -5, supplement / serum: 50μM Thymidine + 50μM Hypoxanthine	108
log10 compound concentration (M): -5, supplement / serum: 50μMThymidine	13.3
log10 compound concentration (M): -5, supplement / serum: Hypoxanthine	85.7
log10 compound concentration (M): -5, supplement / serum: Hypoxanthine+Sodium Formate	51.9
log10 compound concentration (M): -5, supplement / serum: No metabolite	15.4
log10 compound concentration (M): -5, supplement / serum: Sodium Formate	87.3
log10 compound concentration (M): -5, supplement / serum: Vehicle	11.5
log10 compound concentration (M): -5.47712, supplement / serum: 50μM Hypoxanthine	77.9
log10 compound concentration (M): -5.47712, supplement / serum: 50μM Thymidine + 50μM Hypoxanthine	98
log10 compound concentration (M): -5.47712, supplement / serum: 50μMThymidine	14.1
log10 compound concentration (M): -5.47712, supplement / serum: Hypoxanthine	94.2
log10 compound concentration (M): -5.47712, supplement / serum: Hypoxanthine+Sodium Formate	90.1
log10 compound concentration (M): -5.47712, supplement / serum: No metabolite	14.8
log10 compound concentration (M): -5.47712, supplement / serum: Sodium Formate	95.7
log10 compound concentration (M): -5.47712, supplement / serum: Vehicle	13.5
log10 compound concentration (M): -5.95424, supplement / serum: 50μM Hypoxanthine	99.7
log10 compound concentration (M): -5.95424, supplement / serum: 50μM Thymidine + 50μM Hypoxanthine	111
log10 compound concentration (M): -5.95424, supplement / serum: 50μMThymidine	20.9
log10 compound concentration (M): -5.95424, supplement / serum: Hypoxanthine	101
log10 compound concentration (M): -5.95424, supplement / serum: Hypoxanthine+Sodium Formate	99
log10 compound concentration (M): -5.95424, supplement / serum: No metabolite	20.5
log10 compound concentration (M): -5.95424, supplement / serum: Sodium Formate	97.1
log10 compound concentration (M): -5.95424, supplement / serum: Vehicle	20.3
log10 compound concentration (M): -6.43136, supplement / serum: 50μM Hypoxanthine	109
log10 compound concentration (M): -6.43136, supplement / serum: 50μM Thymidine + 50μM Hypoxanthine	114
log10 compound concentration (M): -6.43136, supplement / serum: 50μMThymidine	41.5
log10 compound concentration (M): -6.43136, supplement / serum: Hypoxanthine	98
log10 compound concentration (M): -6.43136, supplement / serum: Hypoxanthine+Sodium Formate	104
log10 compound concentration (M): -6.43136, supplement / serum: No metabolite	43.5
log10 compound concentration (M): -6.43136, supplement / serum: Sodium Formate	98.9
log10 compound concentration (M): -6.43136, supplement / serum: Vehicle	44.8
log10 compound concentration (M): -6.90849, supplement / serum: 50μM Hypoxanthine	99.4
log10 compound concentration (M): -6.90849, supplement / serum: 50μM Thymidine + 50μM Hypoxanthine	101
log10 compound concentration (M): -6.90849, supplement / serum: 50μMThymidine	59.6
log10 compound concentration (M): -6.90849, supplement / serum: Hypoxanthine	99.5
log10 compound concentration (M): -6.90849, supplement / serum: Hypoxanthine+Sodium Formate	98.9
log10 compound concentration (M): -6.90849, supplement / serum: No metabolite	56.7
log10 compound concentration (M): -6.90849, supplement / serum: Sodium Formate	100
log10 compound concentration (M): -6.90849, supplement / serum: Vehicle	74.4
log10 compound concentration (M): -7.38561, supplement / serum: 50μM Hypoxanthine	67.2
log10 compound concentration (M): -7.38561, supplement / serum: 50μM Thymidine + 50μM Hypoxanthine	110
log10 compound concentration (M): -7.38561, supplement / serum: 50μMThymidine	61.2
log10 compound concentration (M): -7.38561, supplement / serum: Hypoxanthine	85.2
log10 compound concentration (M): -7.38561, supplement / serum: Hypoxanthine+Sodium Formate	83
log10 compound concentration (M): -7.38561, supplement / serum: No metabolite	50
log10 compound concentration (M): -7.38561, supplement / serum: Sodium Formate	76.9
log10 compound concentration (M): -7.38561, supplement / serum: Vehicle	56.4
log10 compound concentration (M): -7.86273, supplement / serum: 50μM Hypoxanthine	104
log10 compound concentration (M): -7.86273, supplement / serum: 50μM Thymidine + 50μM Hypoxanthine	105
log10 compound concentration (M): -7.86273, supplement / serum: 50μMThymidine	67.2
log10 compound concentration (M): -7.86273, supplement / serum: Hypoxanthine	88.9
log10 compound concentration (M): -7.86273, supplement / serum: Hypoxanthine+Sodium Formate	94.5
log10 compound concentration (M): -7.86273, supplement / serum: No metabolite	72.2
log10 compound concentration (M): -7.86273, supplement / serum: Sodium Formate	94.4
log10 compound concentration (M): -7.86273, supplement / serum: Vehicle	80.2
log10 compound concentration (M): -8.33985, supplement / serum: 50μM Hypoxanthine	104
log10 compound concentration (M): -8.33985, supplement / serum: 50μM Thymidine + 50μM Hypoxanthine	95
log10 compound concentration (M): -8.33985, supplement / serum: 50μMThymidine	77.3
log10 compound concentration (M): -8.33985, supplement / serum: Hypoxanthine	93.9
log10 compound concentration (M): -8.33985, supplement / serum: Hypoxanthine+Sodium Formate	101
log10 compound concentration (M): -8.33985, supplement / serum: No metabolite	90
log10 compound concentration (M): -8.33985, supplement / serum: Sodium Formate	92.2
log10 compound concentration (M): -8.33985, supplement / serum: Vehicle	92.8
log10 compound concentration (M): -8.81697, supplement / serum: 50μM Hypoxanthine	114
log10 compound concentration (M): -8.81697, supplement / serum: 50μM Thymidine + 50μM Hypoxanthine	113
log10 compound concentration (M): -8.81697, supplement / serum: 50μMThymidine	94
log10 compound concentration (M): -8.81697, supplement / serum: Hypoxanthine	94.5
log10 compound concentration (M): -8.81697, supplement / serum: Hypoxanthine+Sodium Formate	95.1
log10 compound concentration (M): -8.81697, supplement / serum: No metabolite	96.4
log10 compound concentration (M): -8.81697, supplement / serum: Sodium Formate	95.3
log10 compound concentration (M): -8.81697, supplement / serum: Vehicle	94.3
log10 compound concentration (M): -9.29409, supplement / serum: 50μM Hypoxanthine	96.5
log10 compound concentration (M): -9.29409, supplement / serum: 50μM Thymidine + 50μM Hypoxanthine	113
log10 compound concentration (M): -9.29409, supplement / serum: 50μMThymidine	95.6
log10 compound concentration (M): -9.29409, supplement / serum: Hypoxanthine	95.9
log10 compound concentration (M): -9.29409, supplement / serum: Hypoxanthine+Sodium Formate	94.7
log10 compound concentration (M): -9.29409, supplement / serum: No metabolite	104
log10 compound concentration (M): -9.29409, supplement / serum: Sodium Formate	98.8
log10 compound concentration (M): -9.29409, supplement / serum: Vehicle	97
log10 compound concentration (M): -9.77121, supplement / serum: 50μM Hypoxanthine	106
log10 compound concentration (M): -9.77121, supplement / serum: 50μM Thymidine + 50μM Hypoxanthine	124
log10 compound concentration (M): -9.77121, supplement / serum: 50μMThymidine	92.7
log10 compound concentration (M): -9.77121, supplement / serum: Hypoxanthine	95
log10 compound concentration (M): -9.77121, supplement / serum: Hypoxanthine+Sodium Formate	98.8
log10 compound concentration (M): -9.77121, supplement / serum: No metabolite	110
log10 compound concentration (M): -9.77121, supplement / serum: Sodium Formate	99.3
log10 compound concentration (M): -9.77121, supplement / serum: Vehicle	96.2

O=c1[nH]cc(F)c(=O)[nH]1 [5-fluorouracil]
cell viability, SW620
Details	0.0001 M	0.01 µM	0.0278 µM	0.0774 µM	0.215 µM	0.599 µM	1.67 µM	4.64 µM	12.9 µM	35.9 µM
metabolite supplement: 1uM folinic acid	6.83%	102%	100.2%	100%	99.7%	99%	83.6%	48.8%	26.2%	12%
metabolite supplement: 50uM thymidine	6.07% and 5.27%	106%	99.3%	97.1%	96.7%	94.2%	74.8%	49.1%	26.6% and 22.5%	10.4%
metabolite supplement: 50uM thymidine + 1uM folinic acid	7.17%	105%	106%	103%	103%	100%	83.2%	51.5%	26.3%	11.6%
metabolite supplement: 50uM thymidine + 250uM folic acid	6.77%	–	–	–	–	97.8%	79.1%	52.8%	26.3%	11.7%
metabolite supplement: 250uM folic acid	6.37%	–	–	–	–	–	83.4%	51.4%	27.3%	11.9%
metabolite supplement: vehicle	6.87% and 5.97%	99.5%	99.5%	101%	97.4%	95.9% and 98.1%	80.3%	53%	29.5% and 26.5%	11.6%

Cc1[nH]nc2c1C(c1cc(CO)cc(-c3ccccc3)c1)(C(C)C)C(C#N)=C(N)O2 (stereo not drawn) [SHIN1]
SW620 MTHFD2-/-
Details	cell viability [%]
log10 compound concentration (M): -5, supplement / serum: Hypoxanthine	88.2
log10 compound concentration (M): -5, supplement / serum: Hypoxanthine+Sodium Formate	91.8
log10 compound concentration (M): -5, supplement / serum: Sodium Formate	83.5
log10 compound concentration (M): -5, supplement / serum: Vehicle	12.1
log10 compound concentration (M): -5.47712, supplement / serum: Hypoxanthine	102
log10 compound concentration (M): -5.47712, supplement / serum: Hypoxanthine+Sodium Formate	109
log10 compound concentration (M): -5.47712, supplement / serum: Sodium Formate	104
log10 compound concentration (M): -5.47712, supplement / serum: Vehicle	13.6
log10 compound concentration (M): -5.95424, supplement / serum: Hypoxanthine	105
log10 compound concentration (M): -5.95424, supplement / serum: Hypoxanthine+Sodium Formate	107
log10 compound concentration (M): -5.95424, supplement / serum: Sodium Formate	99.9
log10 compound concentration (M): -5.95424, supplement / serum: Vehicle	13.9
log10 compound concentration (M): -6.43136, supplement / serum: Hypoxanthine	103
log10 compound concentration (M): -6.43136, supplement / serum: Hypoxanthine+Sodium Formate	109
log10 compound concentration (M): -6.43136, supplement / serum: Sodium Formate	102
log10 compound concentration (M): -6.43136, supplement / serum: Vehicle	14.8
log10 compound concentration (M): -6.90849, supplement / serum: Hypoxanthine	101
log10 compound concentration (M): -6.90849, supplement / serum: Hypoxanthine+Sodium Formate	104
log10 compound concentration (M): -6.90849, supplement / serum: Sodium Formate	108
log10 compound concentration (M): -6.90849, supplement / serum: Vehicle	16.4
log10 compound concentration (M): -7.38561, supplement / serum: Hypoxanthine	88.3
log10 compound concentration (M): -7.38561, supplement / serum: Hypoxanthine+Sodium Formate	86.8
log10 compound concentration (M): -7.38561, supplement / serum: Sodium Formate	85.4
log10 compound concentration (M): -7.38561, supplement / serum: Vehicle	14
log10 compound concentration (M): -7.86273, supplement / serum: Hypoxanthine	92.2
log10 compound concentration (M): -7.86273, supplement / serum: Hypoxanthine+Sodium Formate	99.9
log10 compound concentration (M): -7.86273, supplement / serum: Sodium Formate	90.9
log10 compound concentration (M): -7.86273, supplement / serum: Vehicle	27.1
log10 compound concentration (M): -8.33985, supplement / serum: Hypoxanthine	101
log10 compound concentration (M): -8.33985, supplement / serum: Hypoxanthine+Sodium Formate	102
log10 compound concentration (M): -8.33985, supplement / serum: Sodium Formate	99.8
log10 compound concentration (M): -8.33985, supplement / serum: Vehicle	47.3
log10 compound concentration (M): -8.81697, supplement / serum: Hypoxanthine	101
log10 compound concentration (M): -8.81697, supplement / serum: Hypoxanthine+Sodium Formate	103
log10 compound concentration (M): -8.81697, supplement / serum: Sodium Formate	99
log10 compound concentration (M): -8.81697, supplement / serum: Vehicle	65.1
log10 compound concentration (M): -9.29409, supplement / serum: Hypoxanthine	96.8
log10 compound concentration (M): -9.29409, supplement / serum: Hypoxanthine+Sodium Formate	99.9
log10 compound concentration (M): -9.29409, supplement / serum: Sodium Formate	97.1
log10 compound concentration (M): -9.29409, supplement / serum: Vehicle	85.7
log10 compound concentration (M): -9.77121, supplement / serum: Hypoxanthine	102
log10 compound concentration (M): -9.77121, supplement / serum: Hypoxanthine+Sodium Formate	105
log10 compound concentration (M): -9.77121, supplement / serum: Sodium Formate	98.8
log10 compound concentration (M): -9.77121, supplement / serum: Vehicle	92.1
